# Like-named read-outs stand apart in the source and are kept apart here.
# Assays:
# [1] = tested on: Rat Liver; conditions: ref ToxRefDB, cited from earlier work
# [2] = biological target: T1, PXR (NR1I2) (Homo sapiens, UniProt O75469); assay: ATG_PXRE_CIS: Factorial reporter gene assay (HepG2); format: cell-based; set-up: endogenous in cells; host or cells: HepG2; conditions: HepG2
# T1 sequence (O75469 1-434): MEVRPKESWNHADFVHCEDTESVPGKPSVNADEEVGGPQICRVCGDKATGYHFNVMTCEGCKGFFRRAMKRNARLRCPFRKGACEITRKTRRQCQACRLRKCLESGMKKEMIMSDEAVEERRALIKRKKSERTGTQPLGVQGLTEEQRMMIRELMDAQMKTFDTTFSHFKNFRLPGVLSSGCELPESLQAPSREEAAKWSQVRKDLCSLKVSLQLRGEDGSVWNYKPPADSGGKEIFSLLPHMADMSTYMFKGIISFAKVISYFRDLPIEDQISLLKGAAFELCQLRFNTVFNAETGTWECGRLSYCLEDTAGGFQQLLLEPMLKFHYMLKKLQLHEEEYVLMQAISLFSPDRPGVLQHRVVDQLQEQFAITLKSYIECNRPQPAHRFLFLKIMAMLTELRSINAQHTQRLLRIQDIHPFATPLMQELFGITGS
# Outline: (§1)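 Mammalian one-hybrid trans reporters (25 MRTUs) measured ERRg, FXR and PPARg; PXRE used cis reporters from a 48-site MRTU library. Both were run in HepG2. Dosing: seven concentrations, MTC as the highest, three-fold dilution series.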
# [3] = biological target: T2, ESR1 (estrogen receptor 1) (Homo sapiens, UniProt P03372); assay: ATG_ERE_CIS: Factorial reporter gene assay (HepG2); format: cell-based; conditions: HepG2
# T2 construct: expressed in transfected cells; host or cells: HepG2
# T2 sequence (P03372 whole entry): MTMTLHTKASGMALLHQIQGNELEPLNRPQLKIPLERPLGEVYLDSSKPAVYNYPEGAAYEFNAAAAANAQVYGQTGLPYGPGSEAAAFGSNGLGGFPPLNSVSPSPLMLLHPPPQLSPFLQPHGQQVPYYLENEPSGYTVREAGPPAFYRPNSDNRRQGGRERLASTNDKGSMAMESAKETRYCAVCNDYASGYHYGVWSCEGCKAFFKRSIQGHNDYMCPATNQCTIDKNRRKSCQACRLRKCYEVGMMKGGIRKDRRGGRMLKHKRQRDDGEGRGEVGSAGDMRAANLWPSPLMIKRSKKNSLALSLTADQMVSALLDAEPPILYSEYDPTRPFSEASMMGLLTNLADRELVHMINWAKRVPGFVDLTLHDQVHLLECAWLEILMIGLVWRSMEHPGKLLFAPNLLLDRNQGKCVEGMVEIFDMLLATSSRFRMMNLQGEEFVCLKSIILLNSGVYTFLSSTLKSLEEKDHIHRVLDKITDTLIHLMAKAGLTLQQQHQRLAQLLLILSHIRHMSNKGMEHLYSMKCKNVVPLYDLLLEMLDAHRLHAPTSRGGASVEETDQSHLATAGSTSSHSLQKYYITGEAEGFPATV
# Description: (§2) A multiple reporter transcription unit (MRTU) library consisting of 48 transcription factor binding sites was transfected into the HepG2 human liver hepatoma cell line. In addition to the cis-acting reporter genes (CIS), a modification of the approach was used to generate a trans-system (TRANS) with a mammalian one-hybrid assay consisting of an additional 25 MRTU library reporting the activity of nuclear receptor super-family members. […] These assays were performed by Attagene Inc. (Morrisville NC) under contract to EPA.
# (§3) In addition to the cis-acting reporter genes (CIS), a modification of the approach was used to generate a trans-system (TRANS) with a mammalian one-hybrid assay consisting of an additional 25 MRTU library reporting the activity of nuclear receptor super-family members. […] Chemicals were then tested in the CIS and TRANS assays at seven concentrations starting at the MTC and followed by three-fold serial dilutions. These assays were performed by Attagene Inc. (Morrisville NC) under contract to EPA. Detailed description of the methods, data and analysis methods for this dataset will be presented in a separate publication.
# [4] = tested on: Mouse Liver; conditions: mouse, chronic study, ref ToxRefDB; cited from earlier work
# [5] = tested on: Rat Liver; conditions: ref ToxRefDB, cited from earlier work; remark: listed apart in the source
# [6] = tested on: Rat Liver; conditions: ref ToxRefDB, cited from earlier work; remark: listed apart in the source
# [7] = tested on: CYP3A4; assay: CLZD_CYP3A4: Change in expression of CYP3A4 (primary human hepatocytes); format: cell-based; conditions: 24 hr
# Outline: (§4)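 Read-out: mRNA change by multiplexed quantitative nuclease protection assay. Primary human hepatocytes; 5 concentrations, 0.004-40 µM; exposures 6, 24, 48 hr.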
# [8] = tested on: CYP2B6; assay: CLZD_CYP2B6: Change in expression of CYP2B6 (primary human hepatocytes); format: cell-based; conditions: 24 hr
# Outline: as §4
# [9] = biological target: T3, PPARG (peroxisome proliferator-activated receptor gamma) (Homo sapiens, UniProt P37231); assay: ATG_PPARg_TRANS: Factorial reporter gene assay (HepG2); format: cell-based; conditions: HepG2
# T3 construct: expressed in transfected cells; host or cells: HepG2
# T3 sequence (P37231 1-505): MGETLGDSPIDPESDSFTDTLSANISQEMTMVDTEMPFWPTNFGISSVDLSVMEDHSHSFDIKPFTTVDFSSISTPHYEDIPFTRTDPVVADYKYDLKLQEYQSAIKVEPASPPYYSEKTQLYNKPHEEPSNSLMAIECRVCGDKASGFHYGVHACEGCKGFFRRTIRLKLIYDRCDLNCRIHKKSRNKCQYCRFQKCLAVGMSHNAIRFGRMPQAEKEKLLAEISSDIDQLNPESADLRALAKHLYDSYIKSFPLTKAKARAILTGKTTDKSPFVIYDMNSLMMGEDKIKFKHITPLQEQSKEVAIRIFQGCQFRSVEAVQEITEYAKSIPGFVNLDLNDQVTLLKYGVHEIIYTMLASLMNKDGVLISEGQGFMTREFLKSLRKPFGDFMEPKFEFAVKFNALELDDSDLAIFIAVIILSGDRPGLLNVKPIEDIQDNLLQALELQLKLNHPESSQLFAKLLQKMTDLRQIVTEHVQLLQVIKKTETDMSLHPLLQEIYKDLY
# Outline: as §1
# [10] = biological target: T1, PXR (NR1I2); assay: NVS_NR_hPXR: Human PXR Fluormone PXR (SXR) green (cell-free HTS); format: binding
# Outline: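 Responses were normalized to same-plate solvent controls as percent of neutral control. AC50 values came from Hill-equation fits of concentration-response curves.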
# [11] = tested on: AR (androgen receptor); assay: NVS_NR_hAR: Human AR 3H-Methyltrienolone (cell-free HTS); format: binding
# From the text: These are a collection of biochemical assays measuring binding constants and enzyme inhibition values. Chemicals were initially screened at a single concentration in duplicate wells at a concentration of 10 [drawing 63] M for cytochrome P-450 assays and 25 [drawing 64] M for all others. […] These assays were run by Caliper Life Sciences (Hanover, MD) under contract to EPA. Short assay descriptions are available at: http://www.caliperls.com/products/contract-research/in-vitro/.
# Cell-free HTS Assays: A collection of biochemical assays measuring binding constants and enzyme inhibition values. […] These assays were run by Caliper Life Sciences (Hanover, MD) under contract to EPA. Short assay descriptions are available at http://www.caliperls.com/products/contract-research/in-vitro/. Values for all endpoints were imported into GeneData Screener (Basel, Switzerland) and normalised to solvent controls from the same plate as the tested compounds and expressed as percent of neutral control. Concentration-response curves were fit in GeneData Screener (Basel, Switzerland) Condeseo module using the Hill equation and AC50 values were determined. […] Detailed description of the methods, data and analysis methods for this dataset are described in a separate publication.
# [12] = tested on: Mouse Liver; conditions: mouse, chronic study, ref ToxRefDB; cited from earlier work; remark: listed apart in the source
# [13] = tested on: Mouse Liver; conditions: mouse, chronic study, ref ToxRefDB; cited from earlier work; remark: listed apart in the source
# [14] = biological target: T1, PXR (NR1I2); assay: ATG_PXR_TRANS: Factorial reporter gene assay (HepG2); format: cell-based; set-up: endogenous in cells; host or cells: HepG2; conditions: HepG2
# Outline: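 HepG2 cells transfected with multiplexed reporter libraries: cis-acting binding-site reporters (CIS) and a one-hybrid nuclear-receptor trans system (TRANS). Chemicals tested at seven concentrations, starting at the maximum tolerated concentration with three-fold serial dilutions.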
# [15] = biological target: T4, LXRa (NR1H3) (Homo sapiens, UniProt Q13133); assay: ATG_LXRa_TRANS: Factorial reporter gene assay (HepG2); format: cell-based; conditions: HepG2
# T4 construct: expressed in transfected cells; host or cells: HepG2
# T4 sequence (Q13133 1-447): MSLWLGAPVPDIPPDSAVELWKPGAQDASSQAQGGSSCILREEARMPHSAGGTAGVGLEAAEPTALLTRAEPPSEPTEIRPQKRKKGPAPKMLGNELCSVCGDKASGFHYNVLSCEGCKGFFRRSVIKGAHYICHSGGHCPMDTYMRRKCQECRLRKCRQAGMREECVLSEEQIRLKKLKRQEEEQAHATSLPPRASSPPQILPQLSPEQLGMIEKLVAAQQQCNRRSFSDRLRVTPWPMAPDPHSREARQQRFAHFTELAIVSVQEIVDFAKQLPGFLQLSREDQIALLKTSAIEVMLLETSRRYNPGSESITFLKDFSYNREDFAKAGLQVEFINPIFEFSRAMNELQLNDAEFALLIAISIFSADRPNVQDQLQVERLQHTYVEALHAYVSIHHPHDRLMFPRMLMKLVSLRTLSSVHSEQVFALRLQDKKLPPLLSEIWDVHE
# Description: as §2, §3
# [16] = biological target: T5, AHR (aryl hydrocarbon receptor) (Homo sapiens, UniProt P35869); assay: ATG_Ahr_CIS: Factorial reporter gene assay (multiplexed transcription reporter, HepG2); format: cell-based; conditions: HepG2
# T5 construct: endogenous in cells; host or cells: HepG2
# T5 sequence (P35869 11-848): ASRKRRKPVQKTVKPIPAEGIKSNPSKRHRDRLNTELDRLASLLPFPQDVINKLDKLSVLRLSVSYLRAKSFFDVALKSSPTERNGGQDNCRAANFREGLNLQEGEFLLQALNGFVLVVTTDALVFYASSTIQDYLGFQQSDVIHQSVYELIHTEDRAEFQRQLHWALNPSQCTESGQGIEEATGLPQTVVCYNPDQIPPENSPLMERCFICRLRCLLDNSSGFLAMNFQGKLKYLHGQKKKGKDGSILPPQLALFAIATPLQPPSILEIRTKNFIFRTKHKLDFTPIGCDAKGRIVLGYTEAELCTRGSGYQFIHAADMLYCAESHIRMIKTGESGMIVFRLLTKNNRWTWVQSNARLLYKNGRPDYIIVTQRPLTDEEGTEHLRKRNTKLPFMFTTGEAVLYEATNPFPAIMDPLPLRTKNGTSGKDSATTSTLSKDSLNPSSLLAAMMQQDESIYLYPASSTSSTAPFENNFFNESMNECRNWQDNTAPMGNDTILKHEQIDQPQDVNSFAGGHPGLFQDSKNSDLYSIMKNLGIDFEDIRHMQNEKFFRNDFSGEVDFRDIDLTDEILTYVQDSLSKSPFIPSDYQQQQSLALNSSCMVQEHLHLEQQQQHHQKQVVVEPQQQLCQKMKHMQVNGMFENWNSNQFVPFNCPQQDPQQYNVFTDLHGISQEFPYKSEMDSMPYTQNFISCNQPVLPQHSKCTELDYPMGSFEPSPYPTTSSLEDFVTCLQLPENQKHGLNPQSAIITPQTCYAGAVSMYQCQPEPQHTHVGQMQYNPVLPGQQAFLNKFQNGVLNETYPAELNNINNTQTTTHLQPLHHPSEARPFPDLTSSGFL
# Description: as §2, §3
# [17] = biological target: T6, LXRb (NR1H2) (Homo sapiens, UniProt P55055); assay: ATG_LXRb_TRANS: Factorial reporter gene assay (HepG2); format: cell-based; conditions: HepG2
# T6 construct: expressed in transfected cells; host or cells: HepG2
# T6 sequence (P55055 1-460): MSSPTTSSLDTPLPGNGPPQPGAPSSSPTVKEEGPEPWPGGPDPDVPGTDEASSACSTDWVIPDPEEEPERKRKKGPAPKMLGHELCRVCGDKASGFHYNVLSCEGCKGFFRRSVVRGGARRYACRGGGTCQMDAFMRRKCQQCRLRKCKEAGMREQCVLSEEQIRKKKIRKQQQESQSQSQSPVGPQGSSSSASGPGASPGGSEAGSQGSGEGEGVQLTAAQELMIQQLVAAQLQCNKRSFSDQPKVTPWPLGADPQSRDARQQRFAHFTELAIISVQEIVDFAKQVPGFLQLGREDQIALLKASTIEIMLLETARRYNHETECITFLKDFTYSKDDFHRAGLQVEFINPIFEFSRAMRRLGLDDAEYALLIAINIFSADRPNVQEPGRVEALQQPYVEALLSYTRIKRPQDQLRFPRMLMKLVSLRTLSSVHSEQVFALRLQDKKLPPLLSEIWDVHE
# Description: as §2, §3
compound,measurement,setting,value
Cc1cc(C)nc(NC(=O)NS(=O)(=O)c2ccccc2C(=O)OC2COC2)n1 [r232],CHR_Rat_Liver_3_NeoplasticLesion,"[1]; rat, chronic study",0
same,ATG_PXRE_CIS,[2],4.337
same,ATG_ERE_CIS,[3],4.319
same,CHR_Mouse_Liver_1_AnyLesion,[4],6
same,CHR_Rat_Liver_2_PreneoplasticLesion,"[5]; rat, chronic study",6
same,CHR_Rat_Liver_1_AnyLesion,"[6]; rat, chronic study",6
same,CLZD_CYP3A4_24,[7],4.535
same,CLZD_CYP2B6_24,[8],4.534
CCCN(CCOc1c(Cl)cc(Cl)cc1Cl)C(=O)n1ccnc1 [r251],CHR_Rat_Liver_3_NeoplasticLesion,"[1]; rat, chronic study",0
same,ATG_PXRE_CIS,[2],5.538
same,ATG_PPARg_TRANS,[9],5.456
same,NVS_NR_hPXR,[10],5.274
same,CHR_Mouse_Liver_1_AnyLesion,[4],6
same,NVS_NR_hAR,[11],4.903
same,CHR_Rat_Liver_2_PreneoplasticLesion,"[5]; rat, chronic study",0
same,CHR_Rat_Liver_1_AnyLesion,"[6]; rat, chronic study",6
same,CHR_Mouse_Liver_2_PreneoplasticLesion,[12],6
same,CHR_Mouse_Liver_3_NeoplasticLesion,[13],6
same,ATG_PXR_TRANS,[14],5.444
CN=C=S [row 205],ATG_LXRa_TRANS,[15],4.495
same,ATG_PPARg_TRANS,[9],4.215
COC(=O)c1ccccc1S(=O)(=O)NC(=O)Nc1nc(C)nc(OC)n1 [row 210],ATG_Ahr_CIS,[16],4.337
same,CHR_Rat_Liver_3_NeoplasticLesion,"[1]; chronic rat study, liver",0
same,CHR_Rat_Liver_2_PreneoplasticLesion,"[5]; chronic rat study, liver",0
same,CHR_Rat_Liver_1_AnyLesion,"[6]; chronic rat study, liver",0
same,ATG_LXRb_TRANS,[17],4.215

# — article PMC3038857, “Using Nuclear Receptor Activity to Stratify Hepatocarcinogens” (PLoS ONE, 2011)
